Target: T1, human CCR-3 (Homo sapiens, UniProt P51677)
T1 construct: expressed in transfected cells; membranes prepared
T1 sequence (P51677 1-355): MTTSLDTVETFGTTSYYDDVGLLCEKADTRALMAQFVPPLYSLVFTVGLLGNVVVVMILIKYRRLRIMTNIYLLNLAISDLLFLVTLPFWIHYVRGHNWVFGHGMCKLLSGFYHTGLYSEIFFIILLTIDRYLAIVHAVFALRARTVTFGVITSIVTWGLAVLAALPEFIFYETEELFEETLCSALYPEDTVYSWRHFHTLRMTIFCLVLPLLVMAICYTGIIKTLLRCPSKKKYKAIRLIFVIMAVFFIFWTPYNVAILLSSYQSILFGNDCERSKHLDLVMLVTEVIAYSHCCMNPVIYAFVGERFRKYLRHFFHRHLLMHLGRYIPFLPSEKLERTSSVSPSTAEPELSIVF
Experiment: [125I]-human eotaxin binding SPA assay on membranes of RBL-2H3 cells stably expressing CCR3
Conditions: membranes of RBL-2H3 cells expressing CCR3, 50 pM [125I]-human eotaxin, 4 hours at room temperature, read-out: IC50 (inhibition of binding of [125I]-human eotaxin to CCR-3)
From the text: Recombinant cells expressing human CCR-3 are captured by wheatgerm agglutinin (WGA) polyvinyltoluidene (PVT) SPA beads (available from Amersham), through a specific interaction between the WGA and carbohydrate residues of glycoproteins on the surface of the cells. [^125I]-human eotaxin (available from Amersham) binds specifically to CCR-3 receptors bringing the [^125I]-human eotaxin in close proximity to the SPA beads. Emitted â-particles from the [^125I]-human eotaxin excite, by its proximity, the fluorophore in the beads and produce light.
Preparation of Assay Buffer: 5.96 g HEPES and 7.0 g sodium chloride are dissolved in distilled water and 1 M aqueous CaCl2 (1 ml) and 1M aqueous MgCl2 (5 ml) are added. The pH is adjusted to 7.6 with NaOH and the solution made to a final volume of 1 l using distilled water. 5 g bovine serum albumin and 0.1 g sodium azide are then dissolved in the solution and the resulting buffer stored at 4° C. A COMPLETE™ protease inhibitor cocktail tablet (available from Boehringer) is added per 50 ml of the buffer on the day of use. […]
The assay is performed in a final volume of 250 μl per well of an OPTIPLATE™ microplate (ex Canberra Packard). […] The resulting scintillations are counted using a Canberra Packard TopCount, each well being counted for 1 minute. […]

| IC50 [nM] | SMILES |
| --- | --- |
| 257 | Cc1noc(C)c1S(=O)(=O)N1CCC(CN2CCN(Cc3ccc(F)cc3)CC2)CC1 [Example 1, 1-[1-(3,5-Dimethylisoxazole-4-sulfonyl)-piperdin-4-yl-methyl]-4-(4-fluorobenzyl)-piperazine] |
| 56 | COc1ccc(OC)c(S(=O)(=O)N2CCC(CN3CCN(Cc4ccc(F)cc4)CC3)CC2)c1 [Example 3, 1-[1-(2,5-dimethoxybenzenesulfonyl)piperidinyl-4-ylmethyl]-4-(4-fluorobenzyl)piperazine] |

Reference: US7482347B2, “Piperazine derivatives with CCR-3 inhibiting activity” (priority 2004, dated 2009)
